{"source": "paper PMC4111740", "about": "“Ligand-Based Pharmacophore Modeling and Virtual Screening for the Discovery of Novel 17β-Hydroxysteroid Dehydrogenase 2 Inhibitors” (Journal of Medicinal Chemistry, 2014)", "key": {"[1]": {"biological_target": "T1, 17β-HSD3 (Homo sapiens, UniProt P37058)", "T1 construct": "expressed in transfected cells; host or cells: HEK-293 (transient, calcium phosphate), intact cells", "T1 sequence (P37058 1-310)": "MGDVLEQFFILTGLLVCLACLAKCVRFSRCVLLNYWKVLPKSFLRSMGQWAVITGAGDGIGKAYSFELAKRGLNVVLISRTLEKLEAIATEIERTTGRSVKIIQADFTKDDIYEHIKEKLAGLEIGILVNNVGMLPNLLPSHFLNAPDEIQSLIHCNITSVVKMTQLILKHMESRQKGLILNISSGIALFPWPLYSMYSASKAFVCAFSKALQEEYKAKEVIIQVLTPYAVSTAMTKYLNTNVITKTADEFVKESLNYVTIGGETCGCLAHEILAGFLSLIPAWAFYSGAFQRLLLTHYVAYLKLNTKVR", "assay": "17β-HSD3 activity in intact transfected HEK-293 cells", "type": "cell-based", "method": "(§1) Human embryonic kidney cells (HEK-293) were cultivated in DMEM containing 4.5 g/L glucose, 10% fetal bovine serum, 100 U/mL penicillin, 0.1 mg/mL streptomycin, 1× MEM nonessential amino acids, and 10 mM HEPES buffer, pH 7.4. The cells were incubated at 37 °C until 80% confluency. The cells were transfected using the calcium phosphate method with expression plasmids for 17β-HSD2 and 17β-HSD3. After 24 h, the cells were trypsinized and seeded on poly-L-lysine-coated 96-well plates (15 000 cells/well).\n(§2) The inhibitory activities were measured 24 h after seeding as follows: old medium was aspirated and replaced by 30 μL of charcoal-treated DMEM (cDMEM). Ten microliters of inhibitor dissolved in cDMEM into the respective concentration was added, and mixtures were preincubated at 37 °C for 20 min. 17β-HSD2 inhibitory activities were measured in the presence of 190 nM unlabeled estradiol and 10 nM radiolabeled estradiol. N-(3-Methoxyphenyl)-N-methyl-5-m-tolylthiophene-2-carboxamide (compound 19 in ref ([26])) was used as positive control. The reaction mixtures were incubated for 20 min, and the reactions were stopped by adding an excess of estradiol and estrone (1:1, 2 mM in methanol) to the mixture.\n17β-HSD3 inhibitory activities were measured in the presence of 190 nM unlabeled androstenedione and 10 nM radiolabeled androstenedione. Benzophenone-1 was used as positive control. The reaction mixtures were incubated for 30 min, and the reactions were stopped by adding an excess of androstenedione and testosterone (1:1, 2 mM in methanol). The steroids were separated by TLC, followed by scintillation counting and calculation of substrate concentration. Data was obtained from three independent measurements."}, "[2]": {"biological_target": "T2, 17β-HSD1 (Homo sapiens, UniProt P14061)", "T2 construct": "expressed in transfected cells; host or cells: HEK-293 (transient, calcium phosphate), lysate", "T2 sequence (P14061 1-328)": "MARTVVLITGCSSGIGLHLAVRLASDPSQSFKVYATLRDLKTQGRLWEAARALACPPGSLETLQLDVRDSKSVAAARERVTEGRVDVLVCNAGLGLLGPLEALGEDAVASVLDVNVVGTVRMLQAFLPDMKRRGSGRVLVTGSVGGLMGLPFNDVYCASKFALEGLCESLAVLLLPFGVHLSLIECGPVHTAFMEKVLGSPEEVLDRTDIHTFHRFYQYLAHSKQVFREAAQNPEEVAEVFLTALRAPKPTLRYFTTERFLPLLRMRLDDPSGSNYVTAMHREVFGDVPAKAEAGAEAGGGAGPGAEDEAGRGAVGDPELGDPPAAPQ", "assay": "17β-HSD1 activity in HEK-293 cell lysates", "type": "biochemical", "conditions": "ratio of IC50 values", "method": "HEK-293 cells were transfected by the calcium phosphate precipitation method with plasmids for human 17β-HSD1, 17β-HSD2, or 11β-HSD2. Cells were cultivated for 48 h, washed with phosphate-buffered saline, and centrifuged for 4 min at 150g. After removal of the supernatants, cell pellets were snap frozen in dry ice and stored at −80 °C until further use.\nLysates of human embryonic kidney cells (HEK-293) expressing either 17β-HSD1 or 17β-HSD2 were incubated for 10 min at 37 °C in TS2 buffer in a final volume of 22 μL containing either solvent (0.2% DMSO/chloroform) or the inhibitor at the respective concentration. N-(3-Methoxyphenyl)-N-methyl-5-m-tolylthiophene-2-carboxamide (compound 19 in ref ([26])) and apigenin[50] were used as positive controls for 17β-HSD1 and 17β-HSD2, respectively, in all experiments. 17β-HSD1 activity was measured in the presence of 190 nM unlabeled estrone, 10 nM radiolabeled estrone, and 500 μM NADPH. In contrast, 17β-HSD2 activity was determined in the presence of 190 nM unlabeled estradiol, 10 nM radiolabeled estradiol, and 500 μM NAD^+. Reactions were stopped after 10 min by adding an excess of unlabeled estradiol and estrone (1:1, 2 mM in methanol). Possible promiscuous enzyme inhibition by aggregate formation of the chemicals was excluded by measuring the inhibition of the enzyme activity by the compounds in the presence of 0.1% Triton X-100.[36] […]"}, "[3]": {"biological_target": "T3, 17β-HSD2 (Homo sapiens, UniProt P37059)", "T3 construct": "expressed in transfected cells; host or cells: HEK-293 (transient, calcium phosphate), lysate", "T3 sequence (P37059 1-387)": "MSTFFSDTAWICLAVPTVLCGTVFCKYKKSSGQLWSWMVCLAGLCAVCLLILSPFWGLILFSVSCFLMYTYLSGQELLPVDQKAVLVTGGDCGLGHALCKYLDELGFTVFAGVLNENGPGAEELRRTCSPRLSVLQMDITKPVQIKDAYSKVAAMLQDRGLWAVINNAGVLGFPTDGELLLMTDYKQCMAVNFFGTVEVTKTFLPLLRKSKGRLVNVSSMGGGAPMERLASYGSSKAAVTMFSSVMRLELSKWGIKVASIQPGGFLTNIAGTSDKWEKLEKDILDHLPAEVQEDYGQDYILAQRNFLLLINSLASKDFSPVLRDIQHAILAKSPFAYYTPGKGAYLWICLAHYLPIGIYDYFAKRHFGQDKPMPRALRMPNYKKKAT", "assay": "17β-HSD2 activity in intact transfected HEK-293 cells", "type": "cell-based", "conditions": "intact HEK-293 cells", "method": "as §1, §2"}, "[4]": {"biological_target": "T4, 11β-HSD1 (Homo sapiens, UniProt P28845)", "T4 construct": "expressed in transfected cells", "T4 sequence (P28845 whole entry)": "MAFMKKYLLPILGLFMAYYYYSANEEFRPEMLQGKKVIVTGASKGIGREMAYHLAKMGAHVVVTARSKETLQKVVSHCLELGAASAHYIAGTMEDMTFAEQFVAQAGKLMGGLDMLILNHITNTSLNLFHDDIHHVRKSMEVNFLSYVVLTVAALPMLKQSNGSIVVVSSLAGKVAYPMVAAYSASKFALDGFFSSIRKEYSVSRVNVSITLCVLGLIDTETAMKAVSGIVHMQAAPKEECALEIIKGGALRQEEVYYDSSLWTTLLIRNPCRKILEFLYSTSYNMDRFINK", "assay": "11β-HSD1 activity in lysates of stably transfected cells", "type": "biochemical", "method": "The methods to determine 11β-HSD1 and -2 activity were performed as described previously.[64] Briefly, lysates of stably transfected cells, expressing either 11β-HSD1 or 11β-HSD2, were incubated for 10 min at 37 °C in TS2 buffer in a final volume of 22 μL containing either solvent (0.2% DMSO) or the inhibitor at the respective concentration. The nonselective 11β-HSD inhibitor glycyrrhetinic acid was used as positive control. Activity measurements of 11β-HSD1 were performed with 190 nM unlabeled cortisone, 10 nM radiolabeled cortisone, and 500 μM NADPH. To measure 11β-HSD2 activity, lysates were incubated with 40 nM unlabeled cortisol, 10 nM radiolabeled cortisol, and 500 μM NAD^+. Reactions were stopped after 10 min by adding an excess of unlabeled cortisone and cortisol (1:1, 2 mM in methanol). The steroids were separated by TLC, followed by scintillation counting and calculation of substrate concentration. Data were collected from at least three independent measurements."}}, "note": "“Also recorded” adds a separate entry of the source."}
{"molecule": "Cc1cc(S(=O)(=O)Nc2cccc(O)c2)c(C)cc1Cl", "note": "[Compound 22]", "values": [{"measurement": "17β-HSD3 inhibition (in words)", "setting": "[1]; intact cells", "value": "weak 17β-HSD3 inhibitors"}, {"measurement": "selectivity: more active toward 17β-HSD2 than 17β-HSD1", "setting": "[2]", "value": 18, "unit": "fold"}]}
{"molecule": "CC(C)(C)c1ccc(S(=O)(=O)Oc2ccccc2O)cc1", "note": "[Compound 12]", "values": [{"measurement": "17β-HSD2 inhibition in intact cells (in words)", "setting": "[3]", "value": "concentration-dependently inhibited 17β-HSD2"}, {"measurement": "selectivity 17β-HSD3 against 17β-HSD2", "setting": "[1]; ratio of IC50 values", "value": 35, "unit": "fold"}, {"measurement": "selectivity 11β-HSD1 against 17β-HSD2", "setting": "[4]; ratio of IC50 values", "value": 9, "unit": "fold"}]}
{"molecule": "COc1ccc(S(=O)(=O)Nc2ccc(O)c3c2CCCC3)cc1", "note": "[Compound 20]", "values": [{"measurement": "17β-HSD3 intact inhibition class (n.i.)", "setting": "[1]; rest activity at 20 μM, Table 3", "value": "n.i"}, {"measurement": "11β-HSD1 versus 17β-HSD2 potency (in words)", "setting": "[4]; lysates", "value": "almost equipotent toward 17β-HSD2 and 11β-HSD1; also recorded: equipotent 17β-HSD2 and 11β-HSD1 inhibitors"}]}
